Literature values as cited in patent US20100260755A1, “IBUDILAST AND IMMUNOMODULATORS COMBINATION” (MediciNova, Inc., priority 2009, published 2010).

Columns and labels:
[1] = system: T-cells isolated from peripheral blood of MS patients; details: in vitro
[2] = system: experimental autoimmune encephalomyelitis; details: in vivo
[3] = system: glial cells
[4] = system: multiple sclerosis patients; details: daily injections, exacerbating-remitting MS

Glatiramer acetate
IL-5 and IL-13 cytokine secretion [1]: induces | effect on experimental autoimmune encephalomyelitis (EAE) [2]: suppress | production of inflammatory mediators TNF-α, nitric oxide, superoxide by glial cells [3]: effectively suppress | exacerbations versus control patients [4]: fewer exacerbations | increases in disability status versus control patients [4]: smaller increases
